# Test: Agilent ZORBAX Eclipse Plus C18, 150 × 2.1 mm, 3.5 µm, 0.2 mL/min, estimated dead time 1.7 min; A: water + 0.1% formic acid; B: acetonitrile; gradient (min/%B) 0/10 20/54 23/100 32/100
# Conditions: stereoisomer not certain
row,Structure (SMILES),LC retention time [min]
1,C=C(C)C1CC=C2C(O)CC(O)C(C)C2(C)C1 (stereo not given),31.6
2,O=C1c2c(O)cc(O)cc2OC(c2ccc(O)cc2)C1O (stereo not given),14
3,CC1OC(Oc2c(-c3ccc(O)c(O)c3)oc3cc(O)cc(O)c3c2=O)C(O)C(O)C1O (stereo not given),9.9
4,O=c1c(O)c(-c2ccc(O)c(O)c2)oc2cc(O)cc(O)c12,10.6
5,O=c1c(O)c(-c2ccc(O)cc2)oc2cc(O)cc(O)c12,13.5
6,O=C1CC(c2ccc(O)cc2)Oc2cc(O)cc(O)c21 (stereo not given),15
7,COc1ccc2ccc(=O)oc2c1,22.7
8,CCC(C)C(=O)c1c(O)c(C)c(O)c(CC2=C(O)C(C)(C)C(=O)C(C(=O)C(C)C)=C2O)c1O (stereo not given),18.4
9,O=C(C=Cc1ccc(O)c(O)c1)OC1C(O)CC(O)(C(=O)O)CC1O (stereo not given),6.6
10,CC(C)=CCc1c(O)cc(O)c2c(=O)c3ccc(O)c(O)c3oc12,28.8
11,COc1cc2oc(-c3ccccc3)c(OC)c(=O)c2c(OC)c1OC,15.9
12,CC(C)(OC1OC(CO)C(O)C(O)C1O)C1CCC(CO)(C(O)CO)O1 (stereo not given),23.6
13,O=C(O)C1OC(Oc2c(-c3ccc(O)c(O)c3)oc3cc(O)cc(O)c3c2=O)C(O)C(O)C1O (stereo not given),9.3
14,COc1cc(O)c2c(=O)c(O)c(-c3ccc(O)cc3)oc2c1,12.5
15,O=c1c(OC2OC(CO)C(O)C(O)C2O)c(-c2ccc(O)c(O)c2)oc2cc(O)cc(O)c12 (stereo not given),8.8
16,O=c1ccc2ccc(O)cc2o1,20.5
17,COc1ccc2c(=O)c3cccc(O)c3oc2c1,25.7
18,O=c1cc(-c2ccc(O)c(-c3c(O)cc(O)c4c(=O)cc(-c5ccc(O)cc5)oc34)c2)oc2cc(O)cc(O)c12,14.9

row,Structure (SMILES),LC retention time [min]
1,O=C(O)C1(O)CC(O)C(O)C(O)C1 (stereo not given),3.1
2,Cc1c(O)c(CC2=C(O)C(C)(C)C(=O)C(C(=O)C(C)C)=C2O)c(O)c(C(=O)C(C)C)c1O,20.1
3,COc1c(-c2ccc(O)c(O)c2)oc2cc(O)cc(O)c2c1=O,12.2
4,O=C1c2c(O)cc(O)cc2OC(c2ccc(O)c(O)c2)C1O (stereo not given),11.6
5,COc1ccc2ccc(=O)oc2c1CC=C(C)C,26
6,O=c1c(-c2c(O)cc(O)c3c(=O)cc(-c4ccc(O)cc4)oc23)c(-c2ccc(O)cc2)oc2cc(O)cc(O)c12,13.6
7,CC1OC(OCC2OC(Oc3c(-c4ccc(O)c(O)c4)oc4cc(O)cc(O)c4c3=O)C(O)C(O)C2O)C(O)C(O)C1O (stereo not given),9.7
8,CC1(C)C=Cc2c(cc(O)c3c(=O)c4ccc(O)c(O)c4oc23)O1,15.6
9,CC1OC(Oc2cc(O)c3c(=O)c(O)c(-c4ccc(O)cc4)oc3c2)C(O)C(O)C1O (stereo not given),10.2
10,O=c1c2cccc(O)c2oc2cc(O)cc(O)c12,26.9
11,CC(C)=CCC1CC2(CC=C(C)C)C(=O)C(=C(O)c3ccccc3)C(=O)C(CC=C(C)C)(C2=O)C1(C)C (stereo not given),20.4
12,COc1cc(C=CC(=O)O)cc(OC)c1O,15.2
13,CCC(C)C(=O)c1c(O)c(C)c(OCC=C(C)CCC=C(C)C)c(C(C)=O)c1O (stereo not given),15.4
14,O=C(C=Cc1ccc(O)c(O)c1)OC1CC(O)(C(=O)O)CC(O)C1O (stereo not given),5.2
15,CC1=CC(=O)CC(C)(C)C1(O)C=CC(C)OC1OC(CO)C(O)C(O)C1O (stereo not given),10.3
16,CC1(C)C=Cc2c(cc(O)c3c(=O)c4cccc(O)c4oc23)O1,29
17,CC(C)=CCCC(C)=CCc1c(O)c(CC2=C(O)C(C)(C)C(=O)C(C(=O)C(C)C)=C2O)c(O)c(C(=O)C(C)C)c1O,18.3

# From the RepoRT retention time repository (doi:10.1016/j.jpba.2019.06.042)
